For this experiment, the system named is BDF1 mice, Adenocarcinoma 755 s.c., tumor weight T/C. Kind of experiment: NCI In Vivo Anticancer Drug Screen. Data for tumor model Adenocarcinoma 755 (subcutaneous) in B6D2F1 (BDF1) mice. The settings on record: endpoint: mean tumor weight, schedule: Q01DX011 (ip), higher = larger tumour. In short, it runs like this: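 Compound activity was tested in mice carrying transplanted tumors. Survival or tumor size was measured, and each value is the treated-group measurement divided by that of the vehicle-treated control group (T/C).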

This note sets out measurements from PubChem BioAssay AID180 (DTP/NCI, 2004).

By T/C is commonly meant the ratio of treated to control. `CCCCCSc1nc(N)nc2nc[nH]c12`: the T/C is 114 % of control (dose: 0.04 mg/kg/injection, vehicle: alkali diluted with saline); 119 % of control (dose: 0.08 mg/kg/injection, vehicle: alkali diluted with saline); 95 % of control (dose: 0.16 mg/kg/injection, vehicle: alkali diluted with saline); 80 % of control (dose: 0.32 mg/kg/injection, vehicle: alkali diluted with saline); 112 % of control (dose: 0.63 mg/kg/injection, vehicle: alkali diluted with saline); 97 % of control (dose: 1.25 mg/kg/injection, vehicle: alkali diluted with saline). The T/C was 79 % of control (dose: 1.5 mg/kg/injection, vehicle: saline); 85 % of control (dose: 2.5 mg/kg/injection, vehicle: alkali diluted with saline); 100 % of control (dose: 3.1 mg/kg/injection, vehicle: saline); 106 % of control (dose: 5.0 mg/kg/injection, vehicle: alkali diluted with saline); 83 % of control (dose: 6.25 mg/kg/injection, vehicle: saline); 82 % of control (dose: 10.0 mg/kg/injection, vehicle: alkali diluted with saline). In addition, the T/C is, setting by setting: (dose: 12.5 mg/kg/injection, vehicle: saline) 43 % of control; (dose: 25.0 mg/kg/injection, vehicle: saline) 47 % of control; (dose: 50.0 mg/kg/injection, vehicle: saline) 7 % of control; (dose: 100.0 mg/kg/injection, vehicle: saline) 3 % of control.
Consider `CN(Cc1cnc2nc(N)nc(N)c2n1)c1ccc(C(=O)N[C@@H](CCC(=O)O)C(=O)O)cc1`, for which the T/C is 94 % of control (dose: 0.56 mg/kg/injection, vehicle: carboxymethylcellulose (CMC)); 57 % of control (dose: 0.84 mg/kg/injection, vehicle: carboxymethylcellulose (CMC)); 77 % of control (dose: 1.0 mg/kg/injection, vehicle: other); 48 % of control (dose: 1.05 mg/kg/injection, vehicle: carboxymethylcellulose (CMC)); 48 % of control (dose: 1.13 mg/kg/injection, vehicle: carboxymethylcellulose (CMC)); 36 % of control (dose: 1.4 mg/kg/injection, vehicle: carboxymethylcellulose (CMC)). The T/C reads like this: (dose: 2.0 mg/kg/injection, vehicle: carboxymethylcellulose (CMC)) 49 % of control; (dose: 2.0 mg/kg/injection, vehicle: other) 43 % of control; (dose: 2.1 mg/kg/injection, vehicle: carboxymethylcellulose (CMC)) 27 % of control; (dose: 2.25 mg/kg/injection, vehicle: carboxymethylcellulose (CMC)) 96 % of control; (dose: 4.5 mg/kg/injection, vehicle: carboxymethylcellulose (CMC)) 48 % of control; (dose: 263.0 micrograms/kg/injection, vehicle: carboxymethylcellulose (CMC)) 66 % of control. The T/C is, setting by setting: (dose: 525.0 micrograms/kg/injection, vehicle: carboxymethylcellulose (CMC)) 53 % of control; (dose: 563.0 micrograms/kg/injection, vehicle: carboxymethylcellulose (CMC)) 63 % of control; (dose: 1050.0 micrograms/kg/injection, vehicle: carboxymethylcellulose (CMC)) 68 % of control; (dose: 1125.0 micrograms/kg/injection, vehicle: carboxymethylcellulose (CMC)) 97 % of control; (dose: 2100.0 micrograms/kg/injection, vehicle: carboxymethylcellulose (CMC)) 31 % of control; (dose: 2250.0 micrograms/kg/injection, vehicle: carboxymethylcellulose (CMC)) 68 % of control.
Turning to `CN(C)c1ncnc2c1ncn2C1CCCCO1` (stereo unspecified), the T/C by setting is: (dose: 11.0 mg/kg/injection, vehicle: methylcellulose (MC)) 70 % of control; (dose: 22.5 mg/kg/injection, vehicle: methylcellulose (MC)) 47 % of control; (dose: 45.0 mg/kg/injection, vehicle: methylcellulose (MC)) 47 % of control; (dose: 90.0 mg/kg/injection, vehicle: methylcellulose (MC)) 20 % of control.
For the compound `Nc1nc(SCc2ccc([N+](=O)[O-])cc2)c2ncn(C3OC(CO)C(O)C3O)c2n1` (stereo unspecified), the T/C is, setting by setting: (dose: 18.75 mg/kg/injection, vehicle: methylcellulose (MC)) 23 % of control; (dose: 37.5 mg/kg/injection, vehicle: methylcellulose (MC)) 20 % of control; (dose: 75.0 mg/kg/injection, vehicle: methylcellulose (MC)) 8 % of control.
